US6159932A, “Endoparasiticidal compositions” (Bayer Aktiengesellschaft, priority 1995, dated 2000)

Tests used:
[1] = tested on: Nematospiroides dubius; experiment: In vivo nematode test, Nematospiroides dubius in the mouse; conditions: oral
Method: Nematospiroides dubius in the Mouse
Mice are infected experimentally with nematodes of the species Nematospiroides dubius. For infection, the mice are administered orally with Nematospiroides dubius as 60 filariform larvae.
After the prepatency period has expired, the suspended active substances are administered orally on day 12 after infection.
(§1) Determination of the Activity
The mice are selected on day 20 after infection. The adult parasites in the Duodenum are counted by means of a compressor. The success of treatment in the dose group is made relative to the untreated control group.

[2] = tested on: Heterakis spumosa; experiment: In vivo nematode test, Heterakis spumosa in the mouse; conditions: oral
Method: Heterakis spumosa in the Mouse
Mice are infected experimentally with nematodes of the species Heterakis spumosa. For infection, the mice are administered orally with Heterakis spumosa as 90 embryonate eggs.
After the prepatency period has expired, the suspended active substances are administered orally on day 46 after infection.
as §1
The mice are selected on day 54 after infection. The adult parasites are counted in the colon and caecum using a microscope. The success of treatment in the dose group is made relative to the untreated control group.

[3] = tested on: Ancylostoma caninum; experiment: In-vivo nematode test, Ancylostoma caninum in dogs; conditions: oral
Method: Ancylostoma caninum in dogs
Beagle puppies were experimentally infested with hookworms (Ancylostoma caninum). Amount of infestation material were 250 L3 larvae.
After the prepatent period, when mature worms are present within the gastrointestinal tract, the dogs were orally treated with the test compounds as pure active in gelatine capsules.
Determination of the Efficacy was Carried Out According to the Following Two Methods
1. Counts of worm eggs within the dogs faces before and after treatment.
2. Percent efficacy at a critical test calculated using the formula: [formula]

[4] = tested on: hookworm and whipworm; conditions: human medicine, high dosage on several days in succession; cited from earlier work
[5] = tested on: hookworm Uncinaria stenocephala; conditions: 500 μg/kg, dogs; cited from earlier work
[6] = ivermectin B1a/B1b 0.1 mg/kg alone

22,23-dihydroavermectins B1a /B1b [Ivermectin B1a /B1b]
Reduction rate [1, 6]: 0% | Reduction rate [2, 6]: < 50% | Reduction rate ([3]; ivermectin B1a/B1b 0,01 mg/kg alone): 100% | Reduction rate ([3]; ivermectin B1a/B1b 0,001 mg/kg alone): 0% | efficacy in hookworm and whipworm infected patients [4]: ineffective

CC(C)C[C@H]1C(=O)O[C@H](Cc2ccccc2)C(=O)N(C)[C@@H](CC(C)C)C(=O)O[C@H](C)C(=O)N(C)[C@@H](CC(C)C)C(=O)O[C@H](Cc2ccccc2)C(=O)N(C)[C@@H](CC(C)C)C(=O)O[C@H](C)C(=O)N1C [PF 1022 A]
Reduction rate ([1]; PF 1022 A 25.0 mg/kg alone): 0% | Reduction rate ([1]; PF 1022 A 50.0 mg/kg alone): 0% | Reduction rate ([2]; PF 1022 A 5.0 mg/kg alone): 0% | Reduction rate ([2]; PF 1022 A 10.0 mg/kg alone): 0% | Reduction rate ([2]; PF 1022 A 25.0 mg/kg alone): 0% | Reduction rate ([2]; PF 1022 A 50.0 mg/kg alone): 0% | Reduction rate ([3]; PF 1022 A 0,5 mg/kg alone): 0% | Reduction rate ([3]; PF 1022 A 1,0 mg/kg alone): 100%

Milbemycin
action against the hookworm Uncinaria stenocephala [5]: distinct weakness in its action
